Measurements from patent publication US5914242A, “Method for diminishing myocardial infarction using protein phosphatase inhibitors” (priority 1997, dated 1999).

System: PP2B
Assay: Effect on PP2B
Assay type: biochemical

SMILES: CC(O)(/C=C/C1CC=CC(=O)O1)C(CC(O)\C=C/C=C\C=C\CO)OP(=O)(O)O (stereo not shown) [fostriecin]
- effect on PP2B: no effect
